Test results as given in patent publication US9371281B2, “Indole derivatives as inhibitors of histone deacetylase” (Pharmacyclics LLC, priority 2006, dated 2016).
Entries after “also recorded” stand apart in the source; their conditions may differ.

Key:
HDAC8 = biological target: T1, HDAC8 (Homo sapiens, UniProt Q9BY41); test: Inhibition of HDAC8 deacetylase activity in vitro; format: biochemical
T1 sequence (Q9BY41 1-377): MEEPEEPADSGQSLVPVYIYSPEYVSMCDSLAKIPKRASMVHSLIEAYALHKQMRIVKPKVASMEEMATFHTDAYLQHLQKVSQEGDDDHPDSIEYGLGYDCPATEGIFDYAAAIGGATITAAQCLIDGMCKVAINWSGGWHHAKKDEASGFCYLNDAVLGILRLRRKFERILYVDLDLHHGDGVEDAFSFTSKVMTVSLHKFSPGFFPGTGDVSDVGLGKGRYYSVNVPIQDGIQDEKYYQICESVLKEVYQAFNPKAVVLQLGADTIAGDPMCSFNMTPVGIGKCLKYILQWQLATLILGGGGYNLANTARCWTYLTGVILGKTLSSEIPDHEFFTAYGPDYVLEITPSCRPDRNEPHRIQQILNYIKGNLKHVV

HDAC1 = HDAC1 (Homo sapiens, UniProt Q13547); test: Inhibition of HDAC1 deacetylase activity in vitro; format: biochemical; settings: ratio of IC50 values
[1] = system: normal human peripheral blood mononuclear cells; test: Cell proliferation, Alamar Blue assay (FIG. 9B); format: cell-based; settings: PBMCs, 24 hours
A549 (lung) = test: Apoptosis in solid tumor cells, Annexin V assay; format: cell-based
HCT116 (colon) = test: Apoptosis in solid tumor cells, Annexin V assay; format: cell-based, human
U87 (glioma) = test: Apoptosis in solid tumor cells, Annexin V assay; format: cell-based
RKO (colon) = test: Apoptosis in solid tumor cells, Annexin V assay; format: cell-based
MCF-7 (breast) = test: Apoptosis in solid tumor cells, Annexin V assay; format: cell-based
PC3 (prostate) = test: Apoptosis in solid tumor cells, Annexin V assay; format: cell-based
Ovcar-3 (ovarian) = test: Apoptosis in solid tumor cells, Annexin V assay; format: cell-based
Jurkat [2] = test: Apoptosis in T-cell lines, Annexin-V positive cells by flow cytometry; format: cell-based; settings: 3 Day dose
J.γ1 [3] = test: as above; format: cell-based; settings: 3 Day dose
P116 [4] = test: as above; format: cell-based; settings: 3 Day dose
J.RT3-T.5 [5] = test: as above; format: cell-based; settings: 3 Day dose
Jurkat cells = test: Compound 23 induced apoptosis with Ca2+ effectors; format: cell-based
Description: […]. […] […].

[6] = system: Cytochrome C translocation in Jurkat cells; test: Cytochrome C translocation, Western blotting of mitochondrial and cytosolic fractions; format: cell-based; settings: 12 or 24 hours
[7] = system: IL-1b secretion in human PBMCs; test: Inhibition of IL-1b secretion in human PBMCs; format: cell-based; settings: FIG. 11
Protocol: Lipopolysaccharide (LPS, 25 ng/ml) is then added to stimulate the cells for another 16 hour incubation period in 5% CO2. IL-1b cytokine levels in the conditioned medium are then quantitated using a sandwich ELISA kit. Compounds are screened at 10, 1, 0.1, 0.01 and 0.001 μM. These same concentrations are concurrently applied to a separate group of treated cells and evaluated for possible compound-induced cytotoxicity.

[8] = system: IL-1b secretion in THP-1 monocyte cell line; settings: LPS, FIG. 12
HDAC8 protein expression = test: Western blot of HDAC8 after 24 hr treatment in Jurkat cells
HDAC2 = HDAC2 (Homo sapiens, UniProt Q92769); test: Inhibition of HDAC2 deacetylase activity in vitro; format: biochemical; settings: ratio of IC50 values
HDAC3 = HDAC3 (Homo sapiens, UniProt O15379); test: Inhibition of HDAC3 deacetylase activity in vitro; format: biochemical; settings: ratio of IC50 values
HDAC6 = HDAC6 (Homo sapiens, UniProt Q9UBN7); test: Inhibition of HDAC6 deacetylase activity in vitro; format: biochemical; settings: ratio of IC50 values
HDAC10 = HDAC10 (Homo sapiens, UniProt Q969S8); test: Inhibition of HDAC10 deacetylase activity in vitro; format: biochemical; settings: ratio of IC50 values
Jurkat [9] = test: Growth inhibition in T-cell lines (Table 6); format: cell-based; settings: Homo sapiens, 72 h, 3 Day dose
J.γ1 [10] = test: Growth inhibition in T-cell lines (Table 6); format: cell-based; settings: 72 h, J.γ1 (Phospholipase C-γ1 deficient), 3 Day dose
P116 [11] = test: Growth inhibition in T-cell lines (Table 6); format: cell-based; settings: 72 h, P116 (ZAP-70 deficient), 3 Day dose
J.RT3-T.5 [12] = test: Growth inhibition in T-cell lines (Table 6); format: cell-based; settings: 72 h, J.RT3-T.5 (TCR-β chain deficient), 3 Day dose
HDAC1 levels = settings: Jurkat cells, 24 hr treatment, Western blot

Chain of HDAC1 (Q13547 whole entry): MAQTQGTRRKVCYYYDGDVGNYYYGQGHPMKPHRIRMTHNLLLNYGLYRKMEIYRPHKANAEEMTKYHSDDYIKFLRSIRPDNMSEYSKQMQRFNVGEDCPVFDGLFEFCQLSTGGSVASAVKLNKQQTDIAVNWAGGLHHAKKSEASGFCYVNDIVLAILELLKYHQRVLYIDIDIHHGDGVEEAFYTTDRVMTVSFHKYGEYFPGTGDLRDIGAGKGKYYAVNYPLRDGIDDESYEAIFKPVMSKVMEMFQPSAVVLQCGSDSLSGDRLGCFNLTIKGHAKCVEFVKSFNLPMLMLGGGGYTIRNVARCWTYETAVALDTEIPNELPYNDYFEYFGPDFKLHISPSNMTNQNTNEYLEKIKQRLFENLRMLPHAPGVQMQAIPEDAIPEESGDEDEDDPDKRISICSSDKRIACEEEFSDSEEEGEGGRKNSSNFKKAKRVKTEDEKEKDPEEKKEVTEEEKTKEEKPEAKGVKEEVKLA
Chain of HDAC6 (Q9UBN7 whole entry): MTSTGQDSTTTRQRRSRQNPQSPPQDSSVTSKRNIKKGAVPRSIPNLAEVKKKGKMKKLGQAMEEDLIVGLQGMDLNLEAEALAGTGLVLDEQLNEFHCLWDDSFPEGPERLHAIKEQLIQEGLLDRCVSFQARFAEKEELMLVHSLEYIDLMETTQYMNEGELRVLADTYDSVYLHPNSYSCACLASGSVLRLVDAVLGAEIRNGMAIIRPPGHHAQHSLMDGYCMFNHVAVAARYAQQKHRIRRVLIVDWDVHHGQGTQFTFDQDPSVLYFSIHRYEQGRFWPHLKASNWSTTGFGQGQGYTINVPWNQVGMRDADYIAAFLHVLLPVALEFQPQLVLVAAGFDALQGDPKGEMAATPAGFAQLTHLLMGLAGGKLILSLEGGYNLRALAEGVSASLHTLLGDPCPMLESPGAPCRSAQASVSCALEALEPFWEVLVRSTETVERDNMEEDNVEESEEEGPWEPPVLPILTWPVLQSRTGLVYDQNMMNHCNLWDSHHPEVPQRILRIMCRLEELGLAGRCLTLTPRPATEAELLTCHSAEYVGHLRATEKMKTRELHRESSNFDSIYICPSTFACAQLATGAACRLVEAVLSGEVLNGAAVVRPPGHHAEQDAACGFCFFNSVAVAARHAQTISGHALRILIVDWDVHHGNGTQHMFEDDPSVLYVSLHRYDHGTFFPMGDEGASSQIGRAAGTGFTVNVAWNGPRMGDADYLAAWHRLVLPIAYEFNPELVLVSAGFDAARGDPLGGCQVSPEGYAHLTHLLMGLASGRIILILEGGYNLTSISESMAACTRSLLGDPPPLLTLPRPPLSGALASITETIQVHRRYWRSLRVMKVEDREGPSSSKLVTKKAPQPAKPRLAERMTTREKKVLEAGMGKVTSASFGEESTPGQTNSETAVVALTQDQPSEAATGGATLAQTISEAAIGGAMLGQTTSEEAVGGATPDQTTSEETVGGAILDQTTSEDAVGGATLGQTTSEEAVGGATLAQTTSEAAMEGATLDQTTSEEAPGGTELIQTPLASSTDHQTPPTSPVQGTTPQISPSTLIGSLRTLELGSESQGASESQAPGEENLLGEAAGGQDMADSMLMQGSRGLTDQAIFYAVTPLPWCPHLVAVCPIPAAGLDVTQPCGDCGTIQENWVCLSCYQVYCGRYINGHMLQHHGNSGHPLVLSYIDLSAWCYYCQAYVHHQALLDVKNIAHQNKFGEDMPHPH
Chain of HDAC10 (Q969S8 whole entry): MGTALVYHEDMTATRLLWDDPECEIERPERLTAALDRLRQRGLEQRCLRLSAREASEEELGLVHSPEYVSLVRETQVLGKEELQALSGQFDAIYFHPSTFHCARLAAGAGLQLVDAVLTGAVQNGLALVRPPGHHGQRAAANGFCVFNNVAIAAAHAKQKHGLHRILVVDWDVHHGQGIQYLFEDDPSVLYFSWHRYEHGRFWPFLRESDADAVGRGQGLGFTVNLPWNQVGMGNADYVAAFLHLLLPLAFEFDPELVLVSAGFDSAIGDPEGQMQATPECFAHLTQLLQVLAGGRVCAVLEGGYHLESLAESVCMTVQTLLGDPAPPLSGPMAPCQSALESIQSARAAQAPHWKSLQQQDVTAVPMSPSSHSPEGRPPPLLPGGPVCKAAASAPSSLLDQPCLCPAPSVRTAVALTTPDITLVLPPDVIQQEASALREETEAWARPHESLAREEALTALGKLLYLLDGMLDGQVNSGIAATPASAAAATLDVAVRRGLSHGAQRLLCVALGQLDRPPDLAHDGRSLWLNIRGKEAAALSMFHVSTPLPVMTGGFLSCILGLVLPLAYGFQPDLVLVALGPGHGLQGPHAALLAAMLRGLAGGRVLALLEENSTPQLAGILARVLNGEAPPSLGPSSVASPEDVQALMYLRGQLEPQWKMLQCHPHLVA
Chain of HDAC3 (O15379 whole entry): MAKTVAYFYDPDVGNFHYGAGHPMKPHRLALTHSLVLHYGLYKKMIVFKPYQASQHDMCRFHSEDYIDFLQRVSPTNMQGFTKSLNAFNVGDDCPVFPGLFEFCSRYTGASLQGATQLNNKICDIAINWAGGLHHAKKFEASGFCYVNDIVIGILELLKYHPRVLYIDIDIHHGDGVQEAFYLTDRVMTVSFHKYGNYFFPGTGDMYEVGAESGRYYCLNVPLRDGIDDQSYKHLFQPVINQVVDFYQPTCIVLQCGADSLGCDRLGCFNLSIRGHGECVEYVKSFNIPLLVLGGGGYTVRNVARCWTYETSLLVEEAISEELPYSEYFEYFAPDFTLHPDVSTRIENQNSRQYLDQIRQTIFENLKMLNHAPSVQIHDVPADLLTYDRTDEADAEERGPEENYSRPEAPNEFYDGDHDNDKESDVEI
Chain of HDAC3 (Q9Y618 389-480 partner limits assumed): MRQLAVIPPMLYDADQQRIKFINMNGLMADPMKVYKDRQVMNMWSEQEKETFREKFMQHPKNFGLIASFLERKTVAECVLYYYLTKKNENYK
Chain of HDAC2 (Q92769 whole entry): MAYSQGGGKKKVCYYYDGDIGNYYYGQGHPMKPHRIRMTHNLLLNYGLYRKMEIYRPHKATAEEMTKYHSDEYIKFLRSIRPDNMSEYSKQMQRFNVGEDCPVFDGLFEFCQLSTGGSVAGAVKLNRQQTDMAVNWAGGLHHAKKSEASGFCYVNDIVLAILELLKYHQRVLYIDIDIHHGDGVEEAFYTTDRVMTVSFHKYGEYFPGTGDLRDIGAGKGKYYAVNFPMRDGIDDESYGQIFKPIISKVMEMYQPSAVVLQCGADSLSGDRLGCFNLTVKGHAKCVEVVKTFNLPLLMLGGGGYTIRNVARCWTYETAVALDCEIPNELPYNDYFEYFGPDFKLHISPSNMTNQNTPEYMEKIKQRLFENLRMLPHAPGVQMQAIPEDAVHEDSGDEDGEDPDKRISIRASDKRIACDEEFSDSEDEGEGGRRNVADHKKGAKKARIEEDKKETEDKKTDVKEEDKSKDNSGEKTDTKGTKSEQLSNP

SMILES: O=C(NO)c1ccc2ccn(Cc3ccc(Cl)cc3)c2c1 [Compound 18, 1-(4-chloro-phenylmethyl)-1H-indole-6-carboxylic acid hydroxyamide]
- IC50 (HDAC8): < 100 nM
- HDAC-1/HDAC-8 (HDAC1): B (B >100)

SMILES: O=C(NO)c1ccc2ccn(Cc3ccc4nonc4c3)c2c1 [Compound 19, 1-(benzo[2,1,3]oxadiazol-5-ylmethyl)-1H-indole-6-carboxylic acid hydroxyamide]
- IC50 (HDAC8): < 100 nM
- HDAC-1/HDAC-8 (HDAC1): B (B >100)

SMILES: Cc1ccc(Cn2ccc3ccc(C(=O)NO)cc32)cc1 [Compound 20, 1-(4-methyl-phenylmethyl)-1H-indole-6-carboxylic acid hydroxyamide]
- IC50 (HDAC8): < 100 nM
- HDAC-1/HDAC-8 (HDAC1): B (B >100)

SMILES: COc1ccc(Cn2ccc3ccc(C(=O)NO)cc32)cc1F [Compound 21, 1-(3-fluoro-4-methoxy-phenylmethyl)-1H-indole-6-carboxylic acid hydroxyamide]
- IC50 (HDAC8): < 100 nM
- HDAC-1/HDAC-8 (HDAC1): B (B >100)

SMILES: O=C(NO)c1ccc2ccn(Cc3ccc(OC(F)F)cc3)c2c1 [Compound 22, 1-[4-(difluoromethoxy)-phenylmethyl]-1H-indole-6-carboxylic acid hydroxyamide]
- IC50 (HDAC8): < 100 nM
- HDAC-1/HDAC-8 (HDAC1): B (B >100)

SMILES: COc1ccc(Cn2ccc3ccc(C(=O)NO)cc32)cc1 [Compound 23, 1-(4-methoxy-phenylmethyl)-1H-indole-6-carboxylic acid hydroxyamide]
- effect on growth [1]: failed to inhibit the growth; also recorded: does not inhibit growth
- % apoptosis at 20 μM (Annexin V assay) (A549 (lung)): 0%
- % apoptosis at 20 μM (Annexin V assay) (HCT116 (colon)): 3%
- % apoptosis at 20 μM (Annexin V assay) (U87 (glioma)): 0%
- % apoptosis at 20 μM (Annexin V assay) (RKO (colon)): 0%
- % apoptosis at 20 μM (Annexin V assay) (MCF-7 (breast)): 0%
- % apoptosis at 20 μM (Annexin V assay) (PC3 (prostate)): 0%
- % apoptosis at 20 μM (Annexin V assay) (Ovcar-3 (ovarian)): 15%
- Apoptosis at 5 μM (%) (Jurkat [2]; 5 μM): 43%
- Apoptosis at 5 μM (%) (J.γ1 [3]; J.γ1, 5 μM): 12%
- Apoptosis at 5 μM (%) (P116 [4]; P116, 5 μM): 82%
- Apoptosis at 5 μM (%) (J.RT3-T.5 [5]; J.RT3-T.5, 5 μM): 67%
- compound 23 induced apoptosis with Ca2+ effector thapsigargin (Jurkat cells; compound 23=5 μM, thapsigargin=0.2 μM): enhanced
- compound 23 induced apoptosis with Ca2+ chelator BAPTA-AM (Jurkat cells; compound 23=10 μM, BAPTA 0.5 μM): inhibited
- Cytochrome C translocation from mitochondria to cytosol [6]: Cytochrome C translocation from mitochondria to cytosol
- IL-1b secretion [7]: inhibition of IL-1b secretion
- IL-1b secretion [8]: reduction of IL-1b secretion
- HDAC8 protein levels (HDAC8 protein expression): affected

SMILES: Cn1cc(Cc2ccc([N+](=O)[O-])cc2)c2cc(C(=O)NO)ccc21 [Compound 34, 1-methyl-3-(4-nitro-phenylmethyl)-1H-indole-5-carboxylic acid hydroxyamide]
- IC50 (HDAC8): < 100 nM
- HDAC-1/HDAC-8 (HDAC1): A (A >10 and <100)
- HDAC-2/HDAC-8 (HDAC2): B (B >100)
- HDAC-3/HDAC-8 (HDAC3): A (A >10 and <100)
- HDAC-6/HDAC-8 (HDAC6): A (A >10 and <100)
- HDAC-10/HDAC-8 (HDAC10): B (B >100)

SMILES: CCn1cc(Cc2ccccc2)c2cc(C(=O)NO)ccc21 [Compound 35, 1-ethyl-3-(phenylmethyl)-1H-indole-5-carboxylic acid hydroxyamide]
- IC50 (HDAC8): < 100 nM
- HDAC-1/HDAC-8 (HDAC1): A (A >10 and <100)

SMILES: Cn1cc(Cc2ccc(NC(=O)c3ccccc3)cc2)c2cc(C(=O)NO)ccc21 [Compound 36, 1-methyl-3-[4-(phenylcarbonylamino)-phenylmethyl]-1H-indole-5-carboxylic acid hydroxyamide]
- IC50 (HDAC8): < 100 nM
- HDAC-1/HDAC-8 (HDAC1): A (A >10 and <100)

SMILES: CC(C)n1cc(Cc2ccccc2)c2cc(C(=O)NO)ccc21 [Compound 37, 1-isopropyl-3-(phenylmethyl)-1H-indole-5-carboxylic acid hydroxyamide]
- IC50 (HDAC8): < 100 nM
- HDAC-1/HDAC-8 (HDAC1): A (A >10 and <100)

SMILES: Cn1cc(Cc2ccc(N)cc2)c2cc(C(=O)NO)ccc21 [Compound 38, 1-methyl-3-(4-amino-phenylmethyl)-1H-indole-5-carboxylic acid hydroxyamide]
- IC50 (HDAC8): < 100 nM
- HDAC-1/HDAC-8 (HDAC1): A (A >10 and <100)

SMILES: Cn1cc(Cc2ccc(F)cc2)c2cc(C(=O)NO)ccc21 [Compound 39, 1-methyl-3-(4-fluoro-phenylmethyl)-1H-indole-5-carboxylic acid hydroxyamide]
- IC50 (HDAC8): < 100 nM
- HDAC-1/HDAC-8 (HDAC1): B (B >100)
- HDAC-2/HDAC-8 (HDAC2): B (B >100)
- HDAC-3/HDAC-8 (HDAC3): A (A >10 and <100)
- HDAC-6/HDAC-8 (HDAC6): A (A >10 and <100)
- HDAC-10/HDAC-8 (HDAC10): B (B >100)

SMILES: CN(C)Cc1c(C(=O)NCCOc2ccc(C(=O)NO)cc2)oc2ccccc12 [PCI-24781, reference compound]
- GI50 (Jurkat [9]): 130 nM
- GI50 (J.γ1 [10]): 140 nM
- GI50 (P116 [11]): 190 nM
- GI50 (J.RT3-T.5 [12]): 140 nM
- Apoptosis at 0.125 μM (%) (Jurkat [2]; 0.125 μM): 48%
- Apoptosis at 0.125 μM (%) (J.γ1 [3]; J.γ1, 0.125 μM): 18%
- Apoptosis at 0.125 μM (%) (P116 [4]; P116, 0.125 μM): 76%
- Apoptosis at 0.125 μM (%) (J.RT3-T.5 [5]; J.RT3-T.5, 0.125 μM): 32%
- HDAC8 protein levels (HDAC8 protein expression): affected
- HDAC1 levels (HDAC1 levels): decreased
